Test results as given in PubChem BioAssay (NCI).
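Five compound concentrations were applied to cells in 96-well plates for 48 hours; endpoints were derived by simple linear interpolation of the resulting dose-response curve. GI50 marks 50% less growth. Definition used: TGI = concentration required for complete inhibition of growth.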

Columns and labels:
Assay in all cases: DTP human tumour cell line panel, 48 h
CAKI-1 renal = tested on: CAKI-1 renal
KM12 colon = tested on: KM12 colon
HOP-92 NSCLC = tested on: HOP-92 NSCLC
OVCAR-5 ovarian = tested on: OVCAR-5 ovarian
HCT-15 colon = tested on: HCT-15 colon
DLD-1 colon = tested on: DLD-1 colon
M14 melanoma = tested on: M14 melanoma
SK-OV-3 ovarian = tested on: SK-OV-3 ovarian
SNB-78 CNS = tested on: SNB-78 CNS
NCI/ADR-RES ovarian = tested on: NCI/ADR-RES ovarian

Row | SMILES | TGI (CAKI-1 renal) [µM] | TGI (KM12 colon) [µM] | TGI (HOP-92 NSCLC) [µM] | TGI (OVCAR-5 ovarian) [µM] | TGI (HCT-15 colon) [µM] | TGI (DLD-1 colon) [µM] | TGI (M14 melanoma) [µM] | TGI (SK-OV-3 ovarian) [µM] | TGI (SNB-78 CNS) [µM] | GI50 (KM12 colon) [µM] | GI50 (HCT-15 colon) [µM] | GI50 (M14 melanoma) [µM] | GI50 (SK-OV-3 ovarian) [µM] | GI50 (SNB-78 CNS) [µM] | GI50 (CAKI-1 renal) [nM] | GI50 (HOP-92 NSCLC) [nM] | GI50 (OVCAR-5 ovarian) [µM] | GI50 (NCI/ADR-RES ovarian) [nM] | TGI (NCI/ADR-RES ovarian) [µM] | GI50 (DLD-1 colon) [µM]
1 | C#Cc1c(C)c(/C=C/C(C)=C/C(=O)OC)n(C)c1C | > 100 | > 100 | 85.1 | > 100 | > 100 | > 100 | > 100 | > 100 | > 100 | – | – | – | – | – | – | – | – | – | – | –
2 | c1ccc2c(c1)oc1ccc3nsnc3c12 | > 100 | > 100 | > 100 | > 100 | > 100 | > 100 | > 100 | > 100 | – | – | – | – | – | – | – | – | – | – | – | –
3 | O=S(=O)(NCn1ccc2ccccc21)c1ccccc1 | – | > 100 | > 100 | > 100 | > 100 | > 100 | > 100 | > 100 | > 100 | – | – | – | – | – | – | – | – | – | – | –
4 | O=C1C=CC(=O)c2c(O)c(NCCOCCO)c(Cl)c(O)c21 | 39.6 | 15.1 | 39.4 | 34.1 | 3.64 | 5.51 | 23.5 | 31.1 | 30.2 | – | – | – | – | – | – | – | – | – | – | –
5 | CC(=O)[O-].[Mn+3].[O-]c1ccccc1C=NCCNCCN=Cc1ccccc1[O-] | – | > 100 | – | – | > 100 | – | > 100 | > 100 | > 100 | > 100 | > 100 | > 100 | > 100 | > 100 | – | – | – | – | – | –
6 | O=C1/C(=C/c2ccccc2)CN(C(=O)CCN2CCCC2)C/C1=C\c1ccccc1 | 14.8 | 1.82 | 14.8 | 7.7 | 3.97 | 3.12 | 3.62 | 20.5 | 16.5 | – | – | – | – | – | – | – | – | – | – | –
7 | C=CCC1=C(C)C[C@@H]2CCC(=O)C=C12 | > 100 | > 100 | > 100 | > 100 | > 100 | – | > 100 | > 100 | > 100 | – | – | – | – | – | – | – | – | – | – | –
8 | Cc1cccc(C)c1NC(=O)CCc1nc(=S)[nH][nH]1 | > 100 | – | > 100 | > 100 | > 100 | > 100 | > 100 | > 100 | > 100 | – | – | – | – | – | – | – | – | – | – | –
9 | CC(=O)O[C@]1(C)OC(=O)[C@@H](CC(C)C)N1[N+](=O)[O-] | – | > 100 | – | > 100 | > 100 | > 100 | > 100 | > 100 | > 100 | – | – | – | – | – | – | – | – | – | – | –
10 | CC(=O)OCC(=O)[C@@]12OC(C)(C)O[C@@H]1C[C@H]1[C@@H]3CC(C=O)=C4C=C(OCCCl)CC[C@]4(C)[C@@]3(F)[C@@H](O)C[C@@]12C | – | > 100 | 90.2 | > 100 | > 100 | > 100 | 61.7 | > 100 | 68.8 | – | – | – | – | – | – | – | – | – | – | –
11 | Cc1nc(Nc2ccccn2)sc1C(=O)/C=C/c1ccc(Cl)cc1 | 13.4 | 15.9 | 31.4 | > 79.4 | > 100 | – | > 67.1 | > 100 | – | 0.377 | 0.355 | 0.342 | 0.494 | – | 460 | 1210 | 0.587 | 340 | > 100 | –
12 | O=c1/c(=C\c2ccc(F)cc2)sc2n1C(c1ccc(F)cc1)C1=C(N=2)c2ccc3ccccc3c2OCC1 (centres undefined) | > 66.9 | > 100 | > 100 | > 100 | > 100 | – | > 100 | > 100 | – | > 89.8 | 7.17 | > 100 | > 100 | – | – | – | > 100 | > 100000 | > 100 | –
13 | CCCC(=O)N[C@H]1C2C3CC4C5CC(C42)C1(C)C53 (some centres undefined) | > 100 | > 100 | > 100 | > 100 | > 100 | > 100 | > 100 | > 100 | > 100 | – | – | – | – | – | – | – | – | – | – | –
14 | Cc1c2c(c(C)c3c4c(oc13)CCCC4)C=NCC2 | 28 | 33 | 25.4 | 32.1 | 34.4 | – | 44.5 | 38.1 | – | – | – | – | – | – | – | – | – | – | 31.2 | –
15 | O=c1ncccn1C1OC(CO)C(O)C1O (centres undefined) | > 100 | > 100 | > 100 | > 100 | > 100 | > 100 | > 100 | > 100 | > 100 | – | – | – | – | – | – | – | – | – | – | –
16 | COc1ccc(CCn2c(=O)c3ccccc3n(C)c2=O)cc1 | > 100 | > 100 | – | > 100 | – | > 100 | > 100 | > 100 | > 100 | – | – | – | – | – | – | – | – | – | – | –
17 | O=C(O)CCNCCCCNCCC(=O)O | > 100 | > 100 | > 100 | > 100 | > 100 | > 100 | > 100 | > 100 | – | – | – | – | – | – | – | – | – | – | – | –
18 | O=C(Oc1ccc(CO[N+](=O)[O-])cc1)c1ccccc1 | 0.308 | 0.33 | 0.313 | 0.316 | 0.358 | – | 0.271 | 1.3 | – | 0.163 | 0.172 | 0.115 | 0.348 | – | 163 | 151 | 0.172 | 195 | 0.434 | –
19 | N.N.N.N.N.O=[N+]([O-])[O-].[Co+3].[O-][Cl+3]([O-])([O-])[O-] | – | > 100 | > 100 | > 100 | > 100 | > 100 | > 100 | > 100 | > 100 | > 100 | > 100 | > 100 | > 100 | > 100 | – | > 100000 | > 100 | – | – | > 100
20 | CCN(c1cc(-c2ccc(CN3CCOCC3)cc2)cc(C(=O)NCc2c(C)cc(C)[nH]c2=O)c1C)C1CCOCC1 | > 100 | 52 | > 57 | > 82.5 | 48.4 | – | 42.3 | > 100 | – | 19.7 | 19.2 | 19.9 | 52.9 | – | 20300 | 16800 | 37.7 | 36200 | > 100 | –
21 | COC(=O)CC(NC(=O)OCc1ccccc1)C(C(=O)OCc1ccccc1)C(C)(OC)OC (centres undefined) | – | – | – | – | > 100 | > 100 | > 100 | – | – | – | – | – | – | – | – | – | – | – | – | –
22 | CCOC(=O)N1CCc2cc(OC)c(OC)cc2/C1=C\c1ccc(OC)c(OC)c1 | – | 85.6 | 56.1 | > 100 | > 100 | > 100 | > 10 | > 100 | > 100 | – | – | – | – | – | – | – | – | – | – | –
